The text below walks through data of patent publication US20220119856A1, “STALL SIDE METHOD FOR THE DETECTION OF BACTERIA IN DAIRY CATTLE” (TRANSFORMATIVE TECHNOLOGIES, priority 2019, published 2022).

One series relates to S. aureus. Description: Rupture of gram-positive bacteria by lytic enzyme, read by bioluminescence of released ATP. The class given is cell-based. The following applies: 0.05% enzyme, PBS buffer, mastitic milk or healthy milk. From the text: As the goal of this invention is to target and detect only gram positive organisms active in mastitis such as: S. aureus, Coagulase negative staphylococci (CoNS) and S. uberi, it is important to identify lytic enzymes that can effectively rupture the cell walls of these pathogens in the presence of raw Bovine milk. […] The action against specific gram-positive organisms of these enzymes has been verified in PBS buffered solutions, but their ability to rupture bacteria had to be verified to in raw milk. The first candidates tested in for their activity in Bovine milk were Lysostaphin (Lyso) which attacks S. aureus, and Streptococcal phage lytic enzyme (PlyC) which attacks Streptococcus uberis. In all reactions, a concentration a of 0.05% of the phage lytic enzyme was used to evaluate the time required to rupture the cell wall of gram-positive bacteria in raw Bovine milk, as well as in a Phosphate-buffered saline (PBS) solution. It was determined that that in one hour, PlyC can eradicate up to 6 logs of S. uberis in PBS buffer, and either mastitic milk or healthy milk. The degree of lysing was determined by bioluminescence produced by the ATP released from the ruptured cells as described earlier. We then lowered the bacterial load to 2 logs of S. uberis in PBS buffer, and either mastitic milk or healthy milk, and it was determined that the PlyC can eradicate this bacterial load in 3 minutes or less. Similar experiments were performed with Lysostaphin (Lyso), which attacks S. aureus, and we determined we that can eradicate up to 6 logs of S. aureus in PBS buffer, and either mastitic milk or healthy milk in under 25 minutes. We then lowered the bacterial load to 2 logs of S. aureus in PBS buffer and either mastitic milk or healthy milk, and it was determined that the Lyso can eradicate this bacterial load in 2 minutes or less.

For the next series, the target named is T1, Apyrase (Solanum tuberosum, UniProt P80595).
T1 construct: purchased Sigma Chemical A6535
T1 sequence (P80595 1-454): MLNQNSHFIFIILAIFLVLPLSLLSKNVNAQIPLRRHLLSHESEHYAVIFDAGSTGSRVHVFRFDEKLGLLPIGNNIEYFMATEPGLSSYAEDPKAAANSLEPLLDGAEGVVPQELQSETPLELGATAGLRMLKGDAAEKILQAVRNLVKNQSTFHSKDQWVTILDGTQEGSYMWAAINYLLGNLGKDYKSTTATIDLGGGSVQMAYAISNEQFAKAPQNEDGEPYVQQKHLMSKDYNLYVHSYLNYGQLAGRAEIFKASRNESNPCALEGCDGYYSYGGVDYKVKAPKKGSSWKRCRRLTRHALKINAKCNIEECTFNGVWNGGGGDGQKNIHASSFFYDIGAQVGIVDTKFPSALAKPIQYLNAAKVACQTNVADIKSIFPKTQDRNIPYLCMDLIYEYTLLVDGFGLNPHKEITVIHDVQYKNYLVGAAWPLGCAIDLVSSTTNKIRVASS
The series can be described thus: Inactivation of excess Apyrase in raw Bovine milk by surfactants, signal after ATP standard added. The class given is biochemical. Conditions: 50 ul raw Bovine milk pretreated with 284 mU Apyrase. Here is the method:
It is important to eliminate any excess Apyrase that may remain in the raw Bovine milk sample after treatment with the Apyrase enzyme that was used to eliminate endogenous ATP in Example #4. […] Among the reagents evaluated were: dimethyldioctadecylammonium chloride, laureltrimethylammonium bromide (DTAB), benzyldimethyldodecylammonium bromide (BDDABr), and cetyl trimethylammonium bromide (CTAB). The experiment was performed by adding between 0.02% and 1% of the selected surfactant to 50 ul of raw Bovine milk that had treated previously been treated with 284 mU of Apyrase as detailed in example #4. The levels of ATP were confirmed by adding 50 uL of Promega luciferin-luciferase reagent (containing 25 mM HEPES buffer (pH 7.5), 40 pg luciferase, 100 pM luciferin, and 10 mM MgSO4). As expected the readings determined on the Hygiena Ensure Luminometer were too low to measure, since all of the ATP had already been eliminated by Apyrase treatment in Example #4. After the initially readings were determined as described above, 10 uL of a 10^−8M solution of ATP standard (Sigma Chemical) was added to the samples above and the bioluminescent signal was determined on a Hygiena Ensure Luminometer. As expected a signal was now detected, since all of the excess Apyrase added earlier had been eliminated by the surfactants being evaluated. The best results were seen when the detergents benzyldimethyldodecylammonium bromide (BDDABr) at 0.05% concentration and, laureltrimethylammonium bromide (DTAB) at 0.5% and 1.0% concentrations were added to the samples.

The subject of series [1] is somatic cells present in raw Bovine milk. The series can be described thus: Rupture of somatic cells in raw Bovine milk, ATP released. Type of series: cell-based. Conditions: in under 90 seconds; raw Bovine milk with predetermined somatic cell counts. The procedure:
A number of surfactants (detergents) were evaluated for their ability to rupture the somatic cells present in raw Bovine milk samples. Among the reagents tested were Triton X100 (Sigma Chemical) and Neonol AF9-10 (Nonoxynol-9) (Elarum Petrochemicals). Determinations using both surfactants were performed on raw Bovine milk samples in which somatic cell counts were predetermined. […] The number of somatic cell ruptured was determined by quantifying the ATP released in 50 uL samples of treated raw Bovine milk (as a function of time) using 50 uL of Promega luciferin-luciferase reagent (containing 25 mM HEPES buffer (pH 7.5), 40 pg luciferase, 100 pM luciferin, and 10 mM MgSO4). Bioluminescent measurements were performed using a Hygiena Ensure luminometer and all readings were blank corrected.

Series [2] is described as follows: Elimination of endogenous ATP in raw Bovine milk, luciferin-luciferase readout. The class given is biochemical. The procedure: All assays were performed using 50 uL of raw Bovine milk and 50 uL of Promega luciferin-luciferase reagent (containing 25 mM HEPES buffer (pH 7.5), 40 pg luciferase, 100 pM luciferin, and 10mM MgSO4). Bioluminescent measurements were determined using the Hygiena Ensure System. The test was performed in both 100% and 50% raw Bovine milk. […] At a concentration of 284 mUnits the apyrase is able to deplete the endogenous ATP in 50 μL of raw milk in less than 30 seconds. The diminution of ATP was so fast with higher concentrations of Apyrase (diluting the enzyme) resulting in the inability to take meaningful reading, since all of the ATP was gone within 10 seconds. There are numerous commercially available ATP-degrading enzymes that can be tested for this purpose, but in our system, the Apyrase enzyme appears more than sufficient.

For series [3] the following is noted: Sigma Chemical A6535, vendor specification; cited from earlier work.

Regarding “Lysostaphin: Lysostaphin (Lyso) which attacks S. aureus”, in the series on S. aureus, the “time to eradicate bacterial load of 2 logs of S. aureus” value was at most 2 minutes and the “time to eradicate up to 6 logs of S. aureus” value was “under 25 minutes”. Besides, in the series with S. aureus (in under 25 minutes), the “bacterial load of S. aureus eradicated” value was “up to 6 logs”.
Take `CCCCCCCCCCCC[N+](C)(C)C.[Br-]` [DTAB, laureltrimethylammonium bromide]: the “inactivation of Apyrase (in words)” value on Apyrase (0.5% surfactant) and at Apyrase (1.0% surfactant) was “best results” each time.
Nonoxynol-9 [Neonol-9-10]: the “ability to rupture somatic cells (in words)” value in series [1] is recorded as “superior to the Triton X100”.
Turning to `CCCCCCCCCCCC[N+](C)(C)Cc1ccccc1.[Br-]` [BDDABr, benzyldimethyldodecylammonium bromide], the “inactivation of Apyrase (in words)” value at Apyrase (0.05% surfactant) is recorded as “best results”.
Take Apyrase: the “elimination of endogenous ATP (in words)” value in series [2] (100% and 50% raw Bovine milk) is given as “works well”. For the same compound, in series [2] (284 mUnits apyrase, 50 μL of raw milk), the “time to deplete the endogenous ATP” value is given as “less than 30 seconds”. In series [2] (higher concentrations of Apyrase), the “time until all of the ATP was gone” value is at most 10 s. In addition, in series [3], the “ATPase activity of the enzyme preparation” value is given as at least 200 units/mg protein.
